According to paper PMC7023430, “4-Aminobenzoic Acid Derivatives: Converting Folate Precursor to Antimicrobial and Cytotoxic Agents” (Biomolecules, 2019):
Converted amounts (≈) assume the structure as drawn. Where two headings read alike, the source gives them in different places.

Key:
[1] = tested on: Trichophyton interdigitale 445; assay: Antifungal microdilution broth method, T. interdigitale; assay type: cell-based
Procedure, shortened: (§1)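 Panel covers five yeasts and three filamentous fungi tested by a slightly modified EUCAST microdilution protocol. Growth medium is glucose-supplemented (2%) RPMI-1640 with L-glutamine at pH 7.0 (MOPS). Endpoints are judged visually from duplicate runs.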

[2] = tested on: Lichtheimia corymbifera 272; assay: Antifungal microdilution broth method, L. corymbifera; assay type: cell-based
Procedure, shortened: as §1

Trichosporon asahii 1188 = assay: Antifungal microdilution broth method, T. asahii; assay type: cell-based
Procedure, shortened: as §1

[3] = tested on: Pseudomonas aeruginosa ATCC 27853, CCM 3955; assay: Antibacterial microdilution broth method, P. aeruginosa; assay type: cell-based; conditions: Pseudomonas aeruginosa, P. aeruginosa
Candida glabrata 20/I = assay: Antifungal microdilution broth method, C. glabrata; assay type: cell-based; conditions: Nakaseomyces glabratus
Procedure, shortened: as §1

[4] = tested on: methicillin-resistant Staphylococcus aureus ATCC 43300, CCM 4750 (MRSA); assay: Antibacterial microdilution broth method, MRSA; assay type: cell-based; conditions: Staphylococcus aureus
[5] = tested on: Enterococcus faecalis ATCC 29212, CCM 4224; assay: Antibacterial microdilution broth method, E. faecalis; assay type: cell-based; conditions: Enterococcus faecalis
Candida tropicalis 156 = assay: Antifungal microdilution broth method, C. tropicalis; assay type: cell-based
Procedure, shortened: as §1

[6] = tested on: ESBL-positive Klebsiella pneumoniae J 14368/08
[7] = tested on: M. kansasii 6509/96 (clinical isolate); assay: Antimycobacterial micromethod in Šula's medium, M. kansasii 6509/96; assay type: cell-based; conditions: Mycobacterium kansasii
[8] = tested on: Mycobacterium kansasii 235/80; assay: Antimycobacterial micromethod in Šula's medium, M. kansasii 235/80; assay type: cell-based
Candida krusei E28 = assay: Antifungal microdilution broth method, C. krusei; assay type: cell-based; conditions: Pichia kudriavzevii
Procedure, shortened: as §1

[9] = tested on: Mycobacterium avium 330/88; assay: Antimycobacterial micromethod in Šula's medium, M. avium; assay type: cell-based
[10] = tested on: Klebsiella pneumoniae D 11750/08; assay: Antibacterial microdilution broth method, K. pneumoniae; conditions: K. pneumoniae D 11750/08; for MIC KP 24 h: 24 h incubation; for MIC KP 48 h: 48 h incubation
[11] = tested on: Escherichia coli ATCC 25922, CCM 3954; assay: Antibacterial microdilution broth method, E. coli; assay type: cell-based; conditions: Escherichia coli
[12] = tested on: Staphylococcus epidermidis H 6966/08; assay: Antibacterial microdilution broth method, S. epidermidis; assay type: cell-based; conditions: Staphylococcus epidermidis, H6966/08
[13] = 24 h incubation, read-out: MIC PA 24 h
[14] = 48 h incubation, read-out: MIC PA 48 h
[15] = 24 h incubation, read-out: MIC MRSA 24 h
[16] = 48 h incubation, read-out: MIC MRSA 48 h
[17] = 24 h incubation, read-out: MIC EF 24 h
[18] = 48 h incubation, read-out: MIC EF 48 h
[19] = 168 h, 7 days incubation at 37 °C, read-out: MIC M. kansasii 6509/96 7 d
[20] = 336 h, 14 days incubation at 37 °C, read-out: MIC M. kansasii 6509/96 14 d
[21] = 504 h, 21 days incubation at 37 °C, read-out: MIC M. kansasii 6509/96 21 d
[22] = 235/80, 168 h, 7 days incubation at 37 °C, read-out: MIC M. kansasii 235/80 7 d
[23] = 235/80, 336 h, 14 days incubation at 37 °C, read-out: MIC M. kansasii 235/80 14 d
[24] = 235/80, 504 h, 21 days incubation at 37 °C, read-out: MIC M. kansasii 235/80 21 d
[25] = 330/88, 336 h, 14 days incubation at 37 °C, read-out: MIC M. avium 330/88 14 d
[26] = 330/88, 504 h, 21 days incubation at 37 °C, read-out: MIC M. avium 330/88 21 d
[27] = 24 h incubation, read-out: MIC EC 24 h
[28] = 48 h incubation, read-out: MIC EC 48 h
[29] = S. epidermidis, 24 h incubation, read-out: MIC SE 24 h
[30] = S. epidermidis, 48 h incubation, read-out: MIC SE 48 h

| SMILES | MIC ([1]; 72 h, read-out: MIC TI 72 h) [µM] | MIC ([1]; 120 h, read-out: MIC TI 120 h) [µM] | MIC ([2]; 24 h, read-out: MIC LC 24 h) [µM] | MIC ([2]; 48 h, read-out: MIC LC 48 h) [µM] | MIC (Trichosporon asahii 1188; 24 h, read-out: MIC TA 24 h) [µM] | MIC (Trichosporon asahii 1188; 48 h, read-out: MIC TA 48 h) [µM] | MIC [3, 13] [µM] | MIC [3, 14] [µM] | MIC (Candida glabrata 20/I; 24 h, read-out: MIC CG 24 h) [µM] | MIC (Candida glabrata 20/I; 48 h, read-out: MIC CG 48 h) [µM] | MIC [4, 15] [µM] | MIC [4, 16] [µM] | MIC [5, 17] [µM] | MIC [5, 18] [µM] | MIC (Candida tropicalis 156; 24 h, read-out: MIC CT 24 h) [µM] | MIC (Candida tropicalis 156; 48 h, read-out: MIC CT 48 h) [µM] | MIC KP-E 24 h [6] [µM] | MIC KP-E 48 h [6] [µM] | MIC [7, 19] [µM] | MIC [7, 20] [µM] | further results |
| --- | --- | --- | --- | --- | --- | --- | --- | --- | --- | --- | --- | --- | --- | --- | --- | --- | --- | --- | --- | --- | --- |
| O=C(O)c1ccc(N=Cc2cc(F)ccc2O)cc1 [1b, 4-[(5-Fluoro-2-hydroxybenzylidene)amino]benzoic acid] | > 500 | > 500 | > 500 | > 500 | > 500 | > 500 | > 500 | > 500 | > 500 | > 500 | > 500 | > 500 | > 500 | > 500 | > 500 | > 500 | >500 | >500 | 500 (≈ 130 µg/mL) | 500 (≈ 130 µg/mL) | MIC [7, 21]: 500 µM (≈ 130 µg/mL); MIC [8, 22]: 250 µM (≈ 64.8 µg/mL); MIC [8, 23]: 500 µM (≈ 130 µg/mL); MIC [8, 24]: 500 µM (≈ 130 µg/mL); MIC (Candida krusei E28; 24 h, read-out: MIC CK 24 h): > 500 µM; MIC (Candida krusei E28; 48 h, read-out: MIC CK 48 h): > 500 µM; MIC [9, 25]: > 1000 µM; MIC [9, 26]: > 1000 µM; MIC KP 24 h [10]: >500 µM; MIC KP 48 h [10]: >500 µM; MIC [11, 27]: > 500 µM; MIC [11, 28]: > 500 µM; MIC [12, 29]: > 500 µM; MIC [12, 30]: > 500 µM |
| O=C(O)c1ccc(N=Cc2cc(Cl)cc(Br)c2O)cc1 [1o, 4-[(3-Bromo-5-chloro-2-hydroxybenzylidene)amino]benzoic acid] | 62.5 (≈ 22.2 µg/mL) | 62.5 (≈ 22.2 µg/mL) | 500 (≈ 177 µg/mL) | 500 (≈ 177 µg/mL) | 31.2 (≈ 11.1 µg/mL) | 31.2 (≈ 11.1 µg/mL) | > 500 | > 500 | 15.6 (≈ 5.54 µg/mL) | 15.6 (≈ 5.54 µg/mL) | 31.2 (≈ 11.1 µg/mL) | 31.2 (≈ 11.1 µg/mL) | 62.5 (≈ 22.2 µg/mL) | 62.5 (≈ 22.2 µg/mL) | 62.5 (≈ 22.2 µg/mL) | 62.5 (≈ 22.2 µg/mL) | 500 (≈ 177 µg/mL) | 500 (≈ 177 µg/mL) | 500 (≈ 177 µg/mL) | 500 (≈ 177 µg/mL) | MIC [7, 21]: 500 µM (≈ 177 µg/mL); MIC [8, 22]: 250 µM (≈ 88.6 µg/mL); MIC [8, 23]: 500 µM (≈ 177 µg/mL); MIC [8, 24]: 500 µM (≈ 177 µg/mL); MIC (Candida krusei E28; 24 h, read-out: MIC CK 24 h): 62.5 µM (≈ 22.2 µg/mL); MIC (Candida krusei E28; 48 h, read-out: MIC CK 48 h): 62.5 µM (≈ 22.2 µg/mL); MIC [9, 25]: 500 µM (≈ 177 µg/mL); MIC [9, 26]: 500 µM (≈ 177 µg/mL); MIC KP 24 h [10]: 500 µM (≈ 177 µg/mL); MIC KP 48 h [10]: 500 µM (≈ 177 µg/mL); MIC [11, 27]: 500 µM (≈ 177 µg/mL); MIC [11, 28]: 500 µM (≈ 177 µg/mL); MIC [12, 29]: 15.6 µM (≈ 5.54 µg/mL); MIC [12, 30]: 31.2 µM (≈ 11.1 µg/mL) |
| COc1ccc(O)c(C=Nc2ccc(C(=O)O)cc2)c1 [1h, 4-[(2-Hydroxy-5-methoxybenzylidene)amino]benzoic acid] | > 500 | > 500 | > 500 | > 500 | 500 (≈ 136 µg/mL) | 500 (≈ 136 µg/mL) | > 500 | > 500 | 250 (≈ 67.8 µg/mL) | 250 (≈ 67.8 µg/mL) | > 500 | > 500 | > 500 | > 500 | 500 (≈ 136 µg/mL) | 500 (≈ 136 µg/mL) | >500 | >500 | 500 (≈ 136 µg/mL) | 500 (≈ 136 µg/mL) | MIC [7, 21]: 500 µM (≈ 136 µg/mL); MIC [8, 22]: 500 µM (≈ 136 µg/mL); MIC [8, 23]: 500 µM (≈ 136 µg/mL); MIC [8, 24]: 500 µM (≈ 136 µg/mL); MIC (Candida krusei E28; 24 h, read-out: MIC CK 24 h): 500 µM (≈ 136 µg/mL); MIC (Candida krusei E28; 48 h, read-out: MIC CK 48 h): 500 µM (≈ 136 µg/mL); MIC [9, 25]: 1000 µM (≈ 271 µg/mL); MIC [9, 26]: 1000 µM (≈ 271 µg/mL); MIC KP 24 h [10]: >500 µM; MIC KP 48 h [10]: >500 µM; MIC [11, 27]: > 500 µM; MIC [11, 28]: > 500 µM; MIC [12, 29]: 500 µM (≈ 136 µg/mL); MIC [12, 30]: 500 µM (≈ 136 µg/mL); MIC ([12]; time not stated, read-out: MIC, S. epidermidis): ≥ 250 µM |
| O=C(O)c1ccc(N=Cc2cc(Cl)cc(I)c2O)cc1 [1p, 4-[(5-Chloro-2-hydroxy-3-iodobenzylidene)amino]benzoic acid] | 7.81 (≈ 3.14 µg/mL) | 7.81 (≈ 3.14 µg/mL) | 250 (≈ 100 µg/mL) | 250 (≈ 100 µg/mL) | 7.81 (≈ 3.14 µg/mL) | 7.81 (≈ 3.14 µg/mL) | > 500 | > 500 | 7.81 (≈ 3.14 µg/mL) | 7.81 (≈ 3.14 µg/mL) | 15.6 (≈ 6.27 µg/mL) | 15.6 (≈ 6.27 µg/mL) | 62.5 (≈ 25.1 µg/mL) | 62.5 (≈ 25.1 µg/mL) | 31.2 (≈ 12.5 µg/mL) | 31.2 (≈ 12.5 µg/mL) | 125 (≈ 50.2 µg/mL) | 125 (≈ 50.2 µg/mL) | 250 (≈ 100 µg/mL) | 250 (≈ 100 µg/mL) | MIC [7, 21]: 500 µM (≈ 201 µg/mL); MIC [8, 22]: 250 µM (≈ 100 µg/mL); MIC [8, 23]: 500 µM (≈ 201 µg/mL); MIC [8, 24]: 500 µM (≈ 201 µg/mL); MIC (Candida krusei E28; 24 h, read-out: MIC CK 24 h): 15.6 µM (≈ 6.27 µg/mL); MIC (Candida krusei E28; 48 h, read-out: MIC CK 48 h): 15.6 µM (≈ 6.27 µg/mL); MIC [9, 25]: 500 µM (≈ 201 µg/mL); MIC [9, 26]: 1000 µM (≈ 402 µg/mL); MIC KP 24 h [10]: 125 µM (≈ 50.2 µg/mL); MIC KP 48 h [10]: 125 µM (≈ 50.2 µg/mL); MIC [11, 27]: 62.5 µM (≈ 25.1 µg/mL); MIC [11, 28]: 62.5 µM (≈ 25.1 µg/mL); MIC [12, 29]: 31.2 µM (≈ 12.5 µg/mL); MIC [12, 30]: 31.2 µM (≈ 12.5 µg/mL) |
